Data as given in US20230255921A1, “COMPOSITION FOR TREATING KCA3.1 CHANNEL-MEDIATED DISEASES COMPRISING PHENYLALKYL CARBAMATE COMPOUND” (CEL[…], priority 2020, published 2023).
Where a name gives a salt, the structure may show the parent alone.

Legend:
[1] = test system: lung fibrosis induced by bleomycin; experiment: Bleomycin-induced lung fibrosis mouse model; assay type: in vivo, C57BL/6 wild-type mice; details: BLM+SF-2 vs BLM group
Protocol: To confirm the effect of the SF-2 compound according to the present invention on the inhibition of fibrosis, an experiment was performed as follows. First. C57BL/6 wild-type mice (purchased from Orient Bio) were divided into three groups of 6 to 8, and used as a disease-induced group, a drug-administered group, and a normal control. The test mice for each group were treated as follows.
(1) Disease-induced group: Lung fibrosis was induced by injecting 1.5 units of bleomycin into the airways of test mice. In addition, the same amount of distilled water as the SF-2 compound administered to the following drug-administered group was intraperitoneally injected (100 mg/kg) 5 times a week. In the accompanying drawing, bleomycin (BLM) refers to this disease-induced group.
(2) Drug-administered group: 1.5 units of bleomycin was injected into the airways of test mice, and then the SF-2 compound of the present invention was intraperitoneally injected (100 mg/kg) five times a week. In the accompanying drawing, BLM+SF-2 indicates the drug-administered group.
(3) Normal control: The same amount of distilled water as that of bleomycin injected into the disease-induced group was injected into the airways. In addition, the same amount of distilled water as that of the SF-2 compound administered to the drug-administered group was intraperitoneally injected five times a week. In the accompanying drawing, C or Control indicates the normal group.
The mouse models for each group were treated with drugs for 4 weeks in the same way as described above and immediately killed by administering an excess of an anesthetic, and then the lungs were extracted and used in the subsequent test.
(§1) The lung and liver tissues extracted from the mouse model were fixed with a paraformaldehyde solution, and cut to a thickness of 1 to 2 mm. The cut tissue was embedded in paraffin and cut to a thickness of 4 μm, the paraffin was removed with xylene, the xylene was removed with ethanol, and the resultant was washed with tap water, thereby obtaining a paraffinized tissue specimen.
(§2) Tissue immunohistochemistry for collagen, which is a fibrotic marker, in the lung and liver tissues, was performed by Masson's trichrome staining.
(§3) The degrees of mRNA expression of pro-inflammatory or pro-fibrotic agents in lung and liver tissues extracted from the mouse models were measured by real time PCR. RNAs of these tissues were isolated using a TRIzol reagent (Molecular Research Center. Cincinnati, Ohio), and single-stranded cDNA was synthesized using BcaBEST polymerase (Takara Shuzo), followed by performing PCR.

[2] = test system: liver fibrosis induced by a CDAHFD diet; experiment: CDAHFD diet-induced liver fibrosis mouse model; assay type: in vivo, C57BL/6 wild-type mice; details: CDAHFD+SF-2 vs CDAHFD group, 100 mg/kg/day five times a week, 16 weeks
Protocol: To confirm the therapeutic effect of the SF-2 compound of the present invention on liver inflammation and fibrosis, an experiment was performed as follows. First, C57BL/6 wild-type mice (purchased from Orient Bio) were divided into three groups of 6 to 8, and used as a disease-induced group, a drug-administered group, and a normal control. The test mice for each group were treated as follows.
(1) Drug-induced group: Test mice were fed a CDAHFD diet (choline deficient, L-amino-acid-defined, high-fat diet with 0.1% methionine. A06071302, Research Diets, New Brunswick, N.J.) to induce fatty liver disease and fibrosis. In addition, the same amount of distilled water as that of the SF-2 compound administered to the following drug-administered group five times a week using a zonde (oral tube). In the accompanying drawing, CDAHFD indicates the disease-induced group.
(2) Drug-administered group: The SF-2 compound of the present invention, together with the CDAHFD diet, was administered (100 mg/kg/day) to test mice five times a week. In the accompanying drawing, CDAHFD+SF-2 indicates the drug-administered group.
(3) Normal control: Test mice were fed a normal diet. In addition, the same amount of distilled water as that of the SF-2 compound was administered to the drug-administered group five times a week using a zonde (oral tube). In the accompanying drawing, C or Control indicates the normal group.
The mouse models for each group were treated with drugs for 16 weeks in the same way as described above and immediately killed by administering an excess of an anesthetic, and then the livers were extracted and used in the subsequent test.
as §1, §2, §3

KCa3.1 channel = KCa3.1 channel (Mus musculus, UniProt O89109); experiment: Whole-cell patch-clamp KCa3.1 current in cultured fibroblasts; assay type: cell-based; set-up: host or cells: fibroblasts (ATCC CRL-2795); details: FIG. 1 and FIG. 2
Protocol: Fibroblasts (CRL-2795: American Type Culture Collection, VA) were cultured in Dulbecco's Modified Eagle Medium (Hyclone, Logan, Utah). All cells were maintained in 5% CO2 under a humid condition at 37° C. The cultured fibroblasts were exposed to pro-inflammatory agents such as lipopolysaccharides (LPS) and a pro-fibrotic agent TGFβ, and the compounds of Chemical Formulas 2 to 8 of the present invention (hereinafter, referred to as SF-2 to SF-8 compounds) for 24 hours, and then anti-inflammatory and anti-fibrotic effects were tested.
Whole cell current through the cell membrane in isolated and cultured single fibroblasts was measured using a patch-clamp technique. A voltage ramp was used to apply voltage to whole-cell voltage clamp cells from −100 mV to +100 mV using a micro-glass electrode, the generated current was amplified using an amplifier (EPC-10, HEKA, Lambrecht, Germany) and then recorded at a sampling rate of 1 to 4 kHz. […]
KCa3.1 current was isolated using the following method. Ina current recorded by injecting 1 μM Ca^2+ into whole-cell voltage clamp cells using a glass electrode and applying 1-ethyl-2-benzimidazolinone (1-EBIO, 100 μM) activating KCa3.1 current, a current inhibited by KCa3.1 channel inhibitor TRAM-34 (10 μM) was determined as the KCa3.1 current, and the recorded current was normalized by division by cell capacitance.

[3] = lung tissue, 100 mg/kg intraperitoneal five times a week, 4 weeks, FIG. 6

KCa3.1 channel, sequence (O89109 whole entry): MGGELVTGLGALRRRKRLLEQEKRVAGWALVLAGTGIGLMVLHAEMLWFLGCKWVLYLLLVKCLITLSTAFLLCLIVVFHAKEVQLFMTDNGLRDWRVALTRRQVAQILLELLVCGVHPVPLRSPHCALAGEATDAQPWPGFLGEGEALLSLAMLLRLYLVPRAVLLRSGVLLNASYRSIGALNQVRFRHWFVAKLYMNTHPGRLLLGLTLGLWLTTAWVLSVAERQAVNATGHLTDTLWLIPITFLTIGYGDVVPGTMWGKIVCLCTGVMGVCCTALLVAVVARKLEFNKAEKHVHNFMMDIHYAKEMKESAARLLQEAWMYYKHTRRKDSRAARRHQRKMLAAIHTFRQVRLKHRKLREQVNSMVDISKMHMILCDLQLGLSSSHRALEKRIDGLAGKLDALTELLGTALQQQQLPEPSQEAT

NC(=O)OC[C@H](N)Cc1ccccc1 [SF-2, (R)-2-amino-3-phenyl propylcarbamate hydrochloride]
fibrosis degree, Masson's trichrome staining of lung tissue ([1]; intraperitoneal five times a week for 4 weeks, FIG. 5): decreased | mRNA expression level of Col1α [1, 3]: greatly decreased | mRNA expression level of Col3α [1, 3]: greatly decreased | mRNA expression level of α-SMA [1, 3]: greatly decreased | degree of blue staining of the liver tissue (Masson's trichrome, collagen fiber) ([2]; FIG. 7): greatly decreased | mRNA expression level of Col1α ([2]; FIG. 8): greatly decreased | mRNA expression level of Col3α ([2]; FIG. 8): greatly decreased | mRNA expression level of α-SMA ([2]; FIG. 8): greatly decreased | KCa3.1 current activated by Ca2+ and 1-EBIO in cells (KCa3.1 channel): inhibited by SF-2 in a concentration-dependent manner
